Legend:
DNA [1] = assay: Binding affinity to calf thymus DNA at pH 7.0 at 20 uM by thermal denaturation assay; assay type: nucleic-acid assay; settings: Bos taurus
DNA [2] = assay: Binding affinity to calf thymus DNA at pH 7.0 at 20 uM after 18 hrs by thermal denaturation assay; assay type: nucleic-acid assay; settings: Bos taurus
L1210 = assay: Cytotoxicity against mouse L1210 cells; assay type: functional; settings: read-out: LC50 (the source's name)
PC-6 = assay: Cytotoxicity against human PC6 cells; assay type: functional; settings: read-out: LD50 (the source's name)
CCRF-CEM = assay: Growth inhibition of human CCRF-CEM cells; assay type: functional
HL-60 = assay: Growth inhibition of human HL60(TB) cells; assay type: functional
K562 = assay: Growth inhibition of human K562 cells; assay type: functional
MOLT-4 = assay: Growth inhibition of human MOLT4 cells; assay type: functional
RPMI-8226 = assay: Growth inhibition of human RPMI8226 cells; assay type: functional
SR = assay: Growth inhibition of human SR cells; assay type: functional
A549 = assay: Growth inhibition of human A549 cells; assay type: functional
EKVX = assay: Growth inhibition of human EKVX cells; assay type: functional
HOP-62 = assay: Growth inhibition of human HOP62 cells; assay type: functional
NCI-H322M = assay: Growth inhibition of human NCI-H322M cells; assay type: functional
NCI-H460 = assay: Growth inhibition of human NCI-H460 cells; assay type: functional
NCI-H522 = assay: Growth inhibition of human NCI-H522 cells; assay type: functional
COLO 205 = assay: Growth inhibition of human COLO 205 cells; assay type: functional
HCC 2998 = assay: Growth inhibition of human HCC2998 cells; assay type: functional
HCT-116 = assay: Growth inhibition of human HCT116 cells; assay type: functional
HCT-15 = assay: Growth inhibition of human HCT15 cells; assay type: functional
HT-29 = assay: Growth inhibition of human HT29 cells; assay type: functional
KM12 = assay: Growth inhibition of human KM12 cells; assay type: functional
SW-620 = assay: Growth inhibition of human SW620 cells; assay type: functional
SF-268 = assay: Growth inhibition of human SF268 cells; assay type: functional
SF-539 = assay: Growth inhibition of human SF539 cells; assay type: functional
SNB-19 = assay: Growth inhibition of human SNB19 cells; assay type: functional
SNB-75 = assay: Growth inhibition of human SNB75 cells; assay type: functional
U-251 = assay: Growth inhibition of human U251 cells; assay type: functional
LOX IMVI = assay: Growth inhibition of human LOX IMVI cells; assay type: functional
Malme-3M = assay: Growth inhibition of human MALME-3M cells; assay type: functional
M14 = assay: Growth inhibition of human M14 cells; assay type: functional
SK-MEL-2 = assay: Growth inhibition of human SK-MEL-2 cells; assay type: functional
SK-MEL-28 = assay: Growth inhibition of human SK-MEL-28 cells; assay type: functional
SK-MEL-5 = assay: Growth inhibition of human SK-MEL-5 cells; assay type: functional
UACC-257 = assay: Growth inhibition of human UACC257 cells; assay type: functional
UACC-62 = assay: Growth inhibition of human UACC62 cells; assay type: functional
IGROV-1 = assay: Growth inhibition of human IGROV1 cells; assay type: functional
OVCAR-3 = assay: Growth inhibition of human OVCAR-3 cells; assay type: functional
OVCAR-4 = assay: Growth inhibition of human OVCAR4 cells; assay type: functional
OVCAR-5 = assay: Growth inhibition of human OVCAR5 cells; assay type: functional
OVCAR-8 = assay: Growth inhibition of human OVCAR8 cells; assay type: functional
SK-OV-3 = assay: Growth inhibition of human SK-OV-3 cells; assay type: functional
786-0 = assay: Growth inhibition of human 786-0 cells; assay type: functional
ACHN = assay: Growth inhibition of human ACHN cells; assay type: functional
CAKI-1 = assay: Growth inhibition of human CAKI1 cells; assay type: functional
RXF 393 = assay: Growth inhibition of human RXF 393 cells; assay type: functional
SN12C = assay: Growth inhibition of human SN12C cells; assay type: functional
TK-10 = assay: Growth inhibition of human TK10 cells; assay type: functional
UO-31 = assay: Growth inhibition of human UO31 cells; assay type: functional
[3] = Growth inhibition of human HS 578T cells; assay type: functional
DU-145 = assay: Growth inhibition of human DU145 cells; assay type: functional
MCF7 = assay: Growth inhibition of human MCF7 cells; assay type: functional
NCI/ADR-RES = assay: Growth inhibition of human NCI/ADR-RES cells; assay type: functional
[4] = Growth inhibition of human 231/ATCC cells; assay type: functional
MDA-MB-435 = assay: Growth inhibition of human MDA-MB-435 cells; assay type: functional
BT-549 = assay: Growth inhibition of human BT549 cells; assay type: functional
T47D = assay: Growth inhibition of human T47D cells; assay type: functional
MDA-MB-468 = assay: Growth inhibition of human MDA-MB-468 cells; assay type: functional
HOP-92 = assay: Growth inhibition of human HOP92 cells; assay type: functional
NCI-H226 = assay: Growth inhibition of human NCI-H226 cells; assay type: functional
NCI-H23 = assay: Growth inhibition of human NCI-H23 cells; assay type: functional

COc1cc(/C=C/C(=O)c2ccccc2O)ccc1OCCCCCOc1cc2c(cc1OC)C(=O)N1CCC[C@H]1C(=O)N2
deltaTm (DNA [1]): 7.1 °C | deltaTm (DNA [2]): 9 °C

COc1cc(/C=C/C(=O)c2ccccc2O)ccc1OCCCCOc1cc2c(cc1OC)C(=O)N1CCC[C@H]1C(=O)N2
deltaTm (DNA [1]): 1 °C | deltaTm (DNA [2]): 1.9 °C

COc1cc2c(cc1O)N=C[C@@H]1CCCN1C2=O
deltaTm (DNA [1]): 0.3 °C | deltaTm (DNA [2]): 0.7 °C | CC50 (L1210): 380 nM | CC50 (PC-6): 330 nM

COc1cc(/C=C/C(=O)c2ccccc2O)ccc1OCCCOc1cc2c(cc1OC)C(=O)N1CCC[C@H]1C(=O)N2
deltaTm (DNA [1]): 2 °C | deltaTm (DNA [2]): 3.5 °C

COc1cc(/C=C/C(=O)c2ccccc2O)ccc1OCCCOc1cc2c(cc1OC)C(=O)N1CCC[C@H]1C=N2
deltaTm (DNA [1]): 5 °C | deltaTm (DNA [2]): 8.1 °C | GI50 (CCRF-CEM): 21 nM | GI50 (HL-60): 17 nM | GI50 (K562): 26 nM | GI50 (MOLT-4): 17 nM | GI50 (RPMI-8226): 25 nM | GI50 (SR): 12 nM | GI50 (A549): 31 nM | GI50 (EKVX): 204 nM | GI50 (HOP-62): 39 nM | GI50 (NCI-H322M): 307 nM | GI50 (NCI-H460): 34 nM | GI50 (NCI-H522): 26 nM | GI50 (COLO 205): 27 nM | GI50 (HCC 2998): 138 nM | GI50 (HCT-116): 33 nM | GI50 (HCT-15): 247 nM | GI50 (HT-29): 30 nM | GI50 (KM12): 18 nM | GI50 (SW-620): 19 nM | GI50 (SF-268): 24 nM | GI50 (SF-539): 28 nM | GI50 (SNB-19): 29 nM | GI50 (SNB-75): 36 nM | GI50 (U-251): 22 nM | GI50 (LOX IMVI): 18 nM | GI50 (Malme-3M): 37 nM | GI50 (M14): 46 nM | GI50 (SK-MEL-2): 67 nM | GI50 (SK-MEL-28): 20 nM | GI50 (SK-MEL-5): 24 nM | GI50 (UACC-257): 112 nM | GI50 (UACC-62): 21 nM | GI50 (IGROV-1): 18 nM | GI50 (OVCAR-3): 21 nM | GI50 (OVCAR-4): 61 nM | GI50 (OVCAR-5): 25 nM | GI50 (OVCAR-8): 36 nM | GI50 (SK-OV-3): 406 nM | GI50 (786-0): 25 nM | GI50 (ACHN): 47 nM | GI50 (CAKI-1): 25 nM | GI50 (RXF 393): 20 nM | GI50 (SN12C): 28 nM | GI50 (TK-10): 41 nM | GI50 (UO-31): 105 nM | GI50 [3]: 23 nM | GI50 (DU-145): 25 nM | GI50 (MCF7): 32 nM | GI50 (NCI/ADR-RES): 308 nM | GI50 [4]: 26 nM | GI50 (MDA-MB-435): 19 nM | GI50 (BT-549): 17 nM | GI50 (T47D): 29 nM | GI50 (MDA-MB-468): 16 nM | GI50 (HOP-92): 44 nM | GI50 (NCI-H226): 138 nM | GI50 (NCI-H23): 39 nM

COc1cc(/C=C/C(=O)c2ccccc2O)ccc1OCCCCOc1cc2c(cc1OC)C(=O)N1CCC[C@H]1C=N2
deltaTm (DNA [1]): 1.7 °C | deltaTm (DNA [2]): 2.1 °C

COc1cc(/C=C/C(=O)c2ccccc2O)ccc1OCCCCCOc1cc2c(cc1OC)C(=O)N1CCC[C@H]1C=N2
deltaTm (DNA [1]): 3.1 °C | deltaTm (DNA [2]): 5 °C
